For orientation: IC50 means the point on the concentration scale where inhibition reaches its midpoint.

The source of these data is paper PMC3676778, “The Effect of the Aerial Part of Lindera akoensis on Lipopolysaccharides (LPS)-Induced Nitric Oxide Production in RAW264.7 Cells” (International Journal of Molecular Sciences, 2013).

Common to all, as to assay type: cell-based, murine
The nature of series [1]: Cell viability (MTT) of RAW264.7 cells in the presence of LPS. The conditions noted are these: mouse, RAW264.7 macrophage cells, RAW 264.7 cells, 100 ng/mL LPS, mean ± SD of three replicates, read-out: Cytotoxicity IC50. The method, then: (§1) A murine macrophage cell line RAW264.7 (BCRC No. 60001) was purchased from the Bioresources Collection and Research Center (BCRC) of the Food Industry Research and Development Institute (Hsinchu, Taiwan). Cells were cultured in plastic dishes containing Dulbecco’s Modified Eagle Medium (DMEM, Sigma, St. Louis, MO, USA) supplemented with 10% fetal bovine serum (FBS, Sigma, St. Louis, MO, USA, USA) in a CO2 incubator (5% CO2 in air) at 37 °C and subcultured every 3 days at a dilution of 1:5 using 0.05% trypsin-0.02% EDTA in Ca^2+-, Mg^2+-free phosphate-buffered saline (DPBS).
(§2) Cells (2 × 105) were cultured in 96-well plate containing DMEM supplemented with 10% FBS for 1 day to become nearly confluent. Then cells were cultured with compounds 1–5 in the presence of 100 ng/mL LPS (lipopolysaccharide) for 24 h. After that, the cells were washed twice with DPBS and incubated with 100 μL of 0.5 mg/mL MTT for 2 h at 37 °C testing for cell viability. The medium was then discarded, and 100 μL dimethyl sulfoxide (DMSO) was added. After 30-min incubation, the absorbance at 570 nm was read using a microplate reader (Molecular Devices, Sunnyvale, CA, USA).
(§3) IC50 values were estimated using a non-linear regression algorithm (SigmaPlot 8.0; SPSS Inc., Chicago, IL, USA, 2002). Statistical evaluation was carried out by one-way analysis of variance (ANOVA followed by Scheffe’s multiple range tests).

In series [2] the test system is LPS-stimulated production of nitric oxide (NO) in RAW 264.7 cell. The experiment in a line: Inhibition of LPS-induced NO (nitrite) production in RAW264.7 cells, Griess reaction. The conditions noted are these: RAW 264.7 cells, LPS 100 ng/mL, 24 h, nitrite by Griess, mean ± SD of three replicates.
Excerpt: NO, produced from L-arginine by NO synthase, has various biological actions, e.g., as a defense and regulatory molecule for homeostatic equilibrium. However, in pathophysiologic conditions, such as inflammation, there is an increased production of NO by inducible NO synthase (iNOS). Macrophages have been expected to be an origin of inflammation, because they contain various chemical mediators that may be responsible for several inflammatory stages. The inhibitory activity toward NO production, induced by lipopolysaccharides (LPS), by murine macrophage-derived RAW264.7 cells, was assayed.
as §1
NO production was indirectly assessed by measuring the nitrite levels in the cultured media and serum determined by a colorimetric method based on the Griess reaction. The cells were incubated with butanolides (0, 3.125, 6.25, 12.5, 25 and 50 μg/mL) in the presence of LPS (100 ng/mL) at 37 °C for 24 h. Then, cells were dispensed into 96-well plates, and 100 μL of each supernatant was mixed with the same volume of Griess reagent (1% sulfanilamide, 0.1% naphthyl ethylenediamine dihydrochloride and 5% phosphoric acid) and incubated at room temperature for 10 min; the absorbance was measured at 540 nm with a Micro-Reader (Molecular Devices Orleans Drive, Sunnyvale, CA, USA). Serum samples were diluted four times with distilled water and deproteinized by adding 1/20 volume of zinc sulfate (300 g/L) to a final concentration of 15 g/L. After centrifugation at 10,000× g for 5 min at room temperature, 100 μL supernatant was applied to a microtiter plate well, followed by 100 μL of Griess reagent. After 10 min of color development at room temperature, the absorbance was measured at 540 nm with a Micro-Reader. By using sodium nitrite to generate a standard curve, the concentration of nitrite was measured form absorbance at 540 nm.
as §3
On the technique in general: The Griess reaction detects nitrite, a stable product of nitric oxide.

A further series concerns RAW264.7 cells. The experiment in a line: Cell viability (MTT) of RAW264.7 cells in the presence of LPS. The conditions noted are these: RAW 264.7 cells, 100 ng/mL LPS, 24 h, mean ± SD of three replicates, read-out: Cytotoxicity IC50. The method, then: as §1, §2, §3

Take `CCCCCCCCCC/C=C/[C@@H]1C(=O)O[C@@H](C)[C@H]1O` [Compound 1, 3α-((E)-Dodec-1-enyl)-4β-hydroxy-5β-methyldihydrofuran-2-one]: in series [1], the IC50 at 24 h came to 78 ± 5.1 µM. In series [2] (Mus musculus, RAW264.7), half-maximal inhibition (IC50) required 20.1 ± 0.3 µM. In the same order, the values of `CCCCCCCCCCC/C=C1\C(=O)O[C@@H](C)[C@H]1O` [Compound 2, 3-epilistenolide D1] are 32.6 ± 0.5 µM and 4.1 ± 0.1 µM. The matching figures for `CCCCCCCCCCC/C=C1/C(=O)O[C@@H](C)[C@H]1O` [Compound 3, 3-epilistenolide D2]: 27.7 ± 1.6 µM and 4.5 ± 0.1 µM.

Turning to `C#CCCCCCCCCC/C=C1\C(=O)O[C@@H](C)[C@@H]1O` [Compound 4, (3Z,4α,5β)-3-(dodec-11-ynylidene)-4-hydroxy-5-methylbutanolide], in series [1], the IC50 at 24 h stood at 139 ± 2.8 µM. Moreover, half-maximal inhibition in series [2] (Mus musculus, RAW264.7) (IC50) required 21.7 ± 0.4 µM. The matching figures for `C#CCCCCCCCCC/C=C1/C(=O)O[C@@H](C)[C@H]1O` [Compound 5, (3E,4β,5β)-3-(dodec-11-ynylidene)-4-hydroxy-5-methylbutanolide]: 143 ± 1.9 µM and 33.4 ± 1 µM. In the same order, the values of `COc1cc(CC2COCC2Cc2ccc3c(c2)OCO3)ccc1O` (stereo not shown) [Compound 6, linderinol] are above 292 µM and 196 ± 4 µM. In the same order, the values of `COc1cc(C[C@H]2COC(=O)[C@@H]2Cc2ccc(O)c(OC)c2)ccc1O` [Compound 7, matairesinol] are above 279 µM and 179 ± 12.1 µM. Consider `COc1cc([C@H]2OC[C@H]3[C@@H]2CO[C@@H]3c2cc(OC)c(O)c(OC)c2)cc(OC)c1O` [Compound 8, syringaresinol], for which, in series [1], the IC50 at 24 h was above 239 µM. In addition, 49.7 ± 4.5 µM corresponded to half-maximal inhibition in series [2] (Mus musculus, RAW264.7) (IC50).

As to `COc1cc(C2OCC3C(=O)OCC32)ccc1O` (stereo not shown) [Compound 10, salicifoliol], the concentration for half-maximal inhibition (IC50) at 24 h in series [1] was above 400 µM. This compound also returned an IC50 in series [2] (Mus musculus, RAW264.7) of 312 ± 14.1 µM. The matching figures for `COc1ccc(-c2oc3cc(O)cc(O)c3c(=O)c2OC2OC(C)C(OC(=O)C=Cc3ccc(O)cc3)C(O)C2O)cc1` [Compound 11, 4′-O-methylkaempferol 3-O-α-L-(4″-E-p-coumaroyl)rhamnoside]: above 84.5 µM and 62.5 ± 2.2 µM.

`C[C@@H]1O[C@@H](Oc2c(-c3ccc(O)cc3)oc3cc(O)cc(O)c3c2=O)[C@H](O)[C@H](O)[C@H]1OC(=O)/C=C\c1ccc(O)cc1` [Compound 12, kaempferol 3-O-α-L-(4″-Z-p-coumaroyl) rhamnoside]: in series [1], the IC50 at 24 h is above 86.5 µM. The compound also gave an IC50 in series [2] (Mus musculus, RAW264.7) of 67.9 ± 1.9 µM. In the case of `C[C@@H]1O[C@@H](Oc2c(-c3ccc(O)cc3)oc3cc(O)cc(O)c3c2=O)[C@H](O)[C@H](O)[C@H]1OC(=O)/C=C/c1ccc(O)cc1` [Compound 13, 4″-p-coumaroylafzelin], the IC50 at 24 h in series [1] was above 86.5 µM. Also, the IC50 in series [2] (Mus musculus, RAW264.7) was 76.9 ± 7.3 µM. In the same order, the values of `Oc1cc(O)c2c(c1)O[C@H](c1ccc(O)c(O)c1)[C@@H](O)C2` [Compound 14, catechin] are above 517 µM and 414 ± 6.9 µM.

For `Oc1cc(O)c2c(c1)O[C@H](c1ccc(O)c(O)c1)[C@H](O)C2` [Compound 15, epicatechin], in series [1], the IC50 at 24 h is above 517 µM. Further, the IC50 in series [2] (Mus musculus, RAW264.7) came to 352 ± 37.4 µM. `COc1ccc2c(c1)c(CC(=O)O)c(C)n2C(=O)c1ccc(Cl)cc1` [indomethacin, reference compound] returned an IC50 in series [2] (Mus musculus, RAW264.7) of 183 ± 5.5 µM. On to (+)-pinoresinol [Compound 9], for which the IC50 in the series on RAW264.7 cells is above 279 µM; in series [2], 90.4 ± 8.6 µM.
